# Experimental data as given in patent US20250197406A1, “INDAZOLES AS HEMATOPOIETIC PROGENITOR KINASE 1 (HPK1) INHIBITORS AND METHODS FOR USING SAME” (1ST Biotherapeutics, Inc., priority 2022, published 2025).
# Structures can show the parent of a compound that is named as a salt.
# Molecular target: recombinant human HPK1 (Homo sapiens (Human), UniProt Q92918)
# Test: HPK1 kinase assay (Promega ADP-Glo kinase assay)
# Assay type: biochemical
# Settings: In vitro activity against HPK1, 5 ng HPK1, MBP substrate, ATP 25 μM, 30° C. 40 minutes
# Method: HPK1 kinase activity was measured by Promega's ADP-Glo™ kinase assay. In this assay, 5 ng of recombinant human HPK1 (signalchem) is incubated with 5 μL of compounds (0.5% DMSO), 5 μL of MBP (0.5 μg/μl) and 5 μL of ATP (25 μM) in buffer (40 mM Tris, 7.5; 20 mM MgCl2; 0.1 mg/ml BSA; 50 μM DTT.). The assay was started by incubating the reaction mixture in a 96-well plate at 30° C. for 40 minutes. After the incubation, 25 μL ADP-Glo reagent was added and the reaction was incubated at room temperature for 40-min to stop the reaction and degrade residual ATP. The ADP product was then converted to ATP by adding 50 μL per well of detection reagent. Luminescence was detected after 30-min room temperature incubation with the Molecular device I3X plate reader. The IC50 values were calculated from a series of percent inhibition values determined at a range of inhibitor concentration using software routines as implemented in the GraphPad Prism 7 software and SigmaPlot13.0.
# Sequence of recombinant human HPK1 (Q92918 whole entry): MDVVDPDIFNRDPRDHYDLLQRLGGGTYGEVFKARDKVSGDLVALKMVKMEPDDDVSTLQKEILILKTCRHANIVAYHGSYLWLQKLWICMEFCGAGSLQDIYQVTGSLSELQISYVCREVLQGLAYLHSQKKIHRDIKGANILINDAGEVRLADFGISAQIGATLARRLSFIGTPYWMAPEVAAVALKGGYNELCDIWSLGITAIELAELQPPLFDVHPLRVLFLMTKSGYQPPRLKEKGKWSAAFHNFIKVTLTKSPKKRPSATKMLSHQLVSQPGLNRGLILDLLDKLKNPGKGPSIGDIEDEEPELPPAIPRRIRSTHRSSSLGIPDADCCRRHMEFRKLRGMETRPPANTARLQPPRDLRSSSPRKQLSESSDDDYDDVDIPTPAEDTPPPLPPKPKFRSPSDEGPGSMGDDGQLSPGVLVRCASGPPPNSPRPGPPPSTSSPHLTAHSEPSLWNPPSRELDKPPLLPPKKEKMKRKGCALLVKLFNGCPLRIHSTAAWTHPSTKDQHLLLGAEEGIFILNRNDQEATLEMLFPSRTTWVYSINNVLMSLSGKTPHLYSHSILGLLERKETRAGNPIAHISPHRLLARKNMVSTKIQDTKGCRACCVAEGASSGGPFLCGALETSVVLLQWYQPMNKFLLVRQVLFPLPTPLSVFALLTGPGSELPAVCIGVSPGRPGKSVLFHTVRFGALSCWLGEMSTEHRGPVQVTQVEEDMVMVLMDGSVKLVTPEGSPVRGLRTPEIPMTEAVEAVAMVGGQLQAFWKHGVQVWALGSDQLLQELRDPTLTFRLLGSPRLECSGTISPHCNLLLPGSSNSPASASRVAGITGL
row,IC50,Structure (SMILES)
1,< 100 nM,"CC(=O)NC(c1c(F)c(C(F)F)c(-c2cn3cc(NC(=O)[C@@H]4C[C@@H]4F)nc3cn2)c2cn[nH]c12)C1CC1 (stereo partly drawn) [Example 54, (1S,2S)-N-(6-(7-(acetamido(cyclopropyl)methyl)-5-(difluoromethyl)-6-fluoro-1H-indazol-4-yl)imidazo[1,2-a]pyrazin-2-yl)-2-fluorocyclopropane-1-carboxamide]"
2,101 to 500 nM,"CC(N)c1c(F)c(C(F)F)c(-c2cn3cc(NC(=O)[C@@H]4C[C@@H]4F)nc3cn2)c2cn[nH]c12 (stereo partly drawn) [Example 55, (1S,2S)-N-(6-(7-(1-aminoethyl)-5-(difluoromethyl)-6-fluoro-1H-indazol-4-yl)imidazo[1,2-a]pyrazin-2-yl)-2-fluorocyclopropane-1-carboxamide]"
3,< 100 nM,"CC(=O)NC(c1c(F)c(C(F)(F)F)c(-c2cn3cc(NC(=O)[C@@H]4C[C@@H]4F)nc3cn2)c2cn[nH]c12)C1CC1 (stereo partly drawn) [Example 56, (1S,2S)-N-(6-(7-(acetamido(cyclopropyl)methyl)-6-fluoro-5-(trifluoromethyl)-1H-indazol-4-yl)imidazo[1,2-a]pyrazin-2-yl)-2-fluorocyclopropane-1-carboxamide formate]"
4,< 100 nM,"CC(C)Nc1c(F)c(Cl)c(-c2cn3cc(NC(=O)c4ccccc4)nc3cn2)c2cn[nH]c12 [Example 57, N-(6-(5-chloro-6-fluoro-7-(isopropylamino)-1H-indazol-4-yl)imidazo[1,2-a]pyrazin-2-yl)benzamide]"
5,101 to 500 nM,"CC(C)Nc1c(F)c(Cl)c(-c2cn3cc(NC(=O)c4ccccn4)nc3cn2)c2cn[nH]c12 [Example 58, N-(6-(5-chloro-6-fluoro-7-(isopropylamino)-1H-indazol-4-yl)imidazo[1,2-a]pyrazin-2-yl)picolinamide]"
6,< 100 nM,"COC(=O)c1c(F)c(NC(C)C)c2[nH]ncc2c1-c1cn2cc(NC(=O)[C@@H]3C[C@@H]3F)nc2cn1 [Example 59, methyl 6-fluoro-4-(2-((1S,2S)-2-fluorocyclopropane-1-carboxamido)imidazo[1,2-a]pyrazin-6-yl)-7-(isopropylamino)-1H-indazole-5-carboxylate]"
7,< 100 nM,"CC(C)Nc1c(F)c(Cl)c(-c2cn3cc(NC(=O)C4CCC4)nc3cn2)c2cn[nH]c12 [Example 60, N-(6-(5-chloro-6-fluoro-7-(isopropylamino)-1H-indazol-4-yl)imidazo[1,2-a]pyrazin-2-yl)cyclobutanecarboxamide]"
8,< 100 nM,"CCC(=O)Nc1cn2cc(-c3c(Cl)c(F)c(NC(C)C)c4[nH]ncc34)ncc2n1 [Example 61, N-(6-(5-chloro-6-fluoro-7-(isopropylamino)-1H-indazol-4-yl)imidazo[1,2-a]pyrazin-2-yl)propionamide]"
9,< 100 nM,"CC(C)Nc1c(F)c(Cl)c(-c2cn3cc(NC(=O)C(F)(F)F)nc3cn2)c2cn[nH]c12 [Example 66, N-(6-(5-chloro-6-fluoro-7-(isopropylamino)-1H-indazol-4-yl)imidazo[1,2-a]pyrazin-2-yl)-2,2,2-trifluoroacetamide]"
10,< 100 nM,"Cc1c(F)c(C(NC(=O)C2CC2)C2CC2)c2[nH]ncc2c1-c1cn2cc(NC(=O)[C@@H]3C[C@@H]3F)nc2cn1 (stereo partly drawn) [Example 67, (1S,2S)-N-(6-(7-(cyclopropanecarboxamido(cyclopropyl)methyl)-6-fluoro-5-methyl-1H-indazol-4-yl)imidazo[1,2-a]pyrazin-2-yl)-2-fluorocyclopropane-1-carboxamide]"
11,101 to 500 nM,"Cc1c(F)c(C(C)N2C(=O)c3ccccc3C2=O)c2[nH]ncc2c1-c1cn2cc(NC(=O)[C@@H]3C[C@@H]3F)nc2cn1 (stereo partly drawn) [Example 68, (1S,2S)-N-(6-(7-(1-(1,3-dioxoisoindolin-2-yl)ethyl)-6-fluoro-5-methyl-1H-indazol-4-yl)imidazo[1,2-a]pyrazin-2-yl)-2-fluorocyclopropane-1-carboxamide]"
